Results taken from patent publication US20240238201A1, “LIPOSOME CARRIER-BASED MULTI-TARGET COMPLEX, DRUG DELIVERY PLATFORM CONTAINING THE SAME, AND APPLICATION THEREOF” (HANGZHOU XINGAO BIOTECHNOLOGY CO., LTD., priority 2021, published 2024).

B1: Anti-CD47 VHH: anti-CD47 nanobody, SEQ ID NO: 2, 6His-tagged, expressed in E. coli (protein)
VHH: QVQLVESGGGLVEPGGSLRLSCAASGIIFKINDMGWYRQAPGKRREWVAASTGGDEAIYRDSVKDRFTISRDAKNSVFLQMNSLKPEDTAVYYCTAVISTDRDGTEWRRYWGQGTQVTVSS
modifications: 6His tag
B2: Anti-PD-L1 VHH: anti-PD-L1 nanobody, SEQ ID NO: 1, 6His-tagged, expressed in E. coli (protein)
VHH: QVQLQESGGGLVQTGGSLRLSCAASGSTVSSSMMAWWRQTPGNQRELVALVASGNNTNYVDSVKGRFTVSRDNAKNTMYLQMNSLKPEDTAVYYCRILSVNGIWYWGQGTQVTVSS
modifications: 6His tag; Aritifical sequence

Key:
[1] = tested on: murine colorectal cancer cell CT26; assay: Subcutaneous graft tumors of murine colorectal cancer cell CT26 in BalB/C mice; format: in vivo, mouse; details: intraperitoneal once a day for 21 days; for Average tumor weight (g): doses of Table 1, n = 10, mean ± SD; for Average tumor suppression rate (%): doses of Table 1, vs negative control
Description: (§1) Specie and strain: BalB/C ordinary mice and C57BL/6 ordinary mice.
(§2) Route of administration: intraperitoneal injection.
(§3) Dose of the novel multi-target immune complex: 200 μL/each;
(§4) Dosing frequency: once a day for 21 consecutive days;
(§5) Number of animals per group: 10.
(§6) Used herein are mouse colorectal cancer cell line CT26, mouse breast cancer cell line 4T1 and mouse melanoma cell line B16F10, which were purchased from the cell bank of Chinese Academy of Sciences.
(§7) Cancer cells were cultured, passaged, collected at the logarithmic phase of cells, and prepared into a cell suspension at a concentration of (1.0×10^7) per ml. Mice were injected with 0.2 ml of the cell suspension at the axilla of the right forelimb (cell number 2.0×10^6 cells/each), and tumorigenicity was successful in about 8 days.
(§8) These mice were randomly divided into 11 groups equally, namely, group A: negative control group (PBS group), group B: positive control (cGAMP) group (dose: 10 mg/kg), group C: ENPP1-YZ1 group (dose: 5 mg/kg), group D: ENPP1-YZ2 group (dose: 5 mg/kg), group E: anti-PD-L1 VHH group (dose: 2.5 mg/kg), group F: anti-CD47 VHH group (dose: 2.5 mg/kg), group G: complex I group, group H: complex II group, group I: complex III group, group J: complex IV group, and group K: complex V group. The mice were administered once a day for 21 days. After 21 days, the mice were executed, the tumor weight was weighed, and the tumor inhibition rate was calculated by [1-average tumor weight of experimental groups (groups B, C, D, E, F, G, H, I, J, and K)/average tumor weight of group A]×100%.
(§9) The mouse colorectal cancer cell line CT26 was prepared and injected into BalB/C ordinary mice. The mouse breast cancer cell line 4T1 was prepared and injected into BalB/C ordinary mice. The melanoma cell line B16F0 was prepared and injected into C57BL/6 ordinary mice. The anti-tumor effects of different drugs were observed.
(§10) Data were expressed as x±s and processed using a SPSS 10.0 software. One-way ANOVA test was used to compare the significance of the differences in tumor weight between groups, with a significance level a=0.05.

[2] = tested on: mouse melanoma cell line B16F0; assay: Subcutaneous graft tumors of mouse melanoma cell line B16F0 in C57BL/6 mice; format: in vivo; details: intraperitoneal once a day for 21 days; for Average tumor weight (g): doses of Table 1, n = 10, mean ± SD; for Average tumor suppression rate (%): doses of Table 1, vs negative control
Description: as §1, §2, §3, §4, §5, §6, §7, §8, §9, §10

[3] = tested on: mouse breast cancer cell line 4T1; assay: Subcutaneous graft tumors of mouse breast cancer cell line 4T1 in BalB/C mice, with lung metastasis nodules; format: in vivo; details: for number of lung tumor nodules compared with the model group (in words): 4T1 breast cancer lung metastasis, lungs fixed with 4% paraformaldehyde; for Average tumor weight (g) / Average tumor suppression rate (%) / Number of metastatic lung nodules: 4T1 in BalB/C mice; for Average tumor weight (g) / Average tumor suppression rate (%): intraperitoneal once a day for 21 days; for Average tumor weight (g): doses of Table 1, n = 10, mean ± SD; for Average tumor suppression rate (%): doses of Table 1, vs negative control; for Number of metastatic lung nodules: lungs after 21 days of dosing, negative control 35
Description: as §1, §2, §3, §4, §5, §6, §7, §8, §9, §10
Dissections were performed on mice that had been executed for the 4T1 breast cancer study, where the lung tissues were carefully peeled off and photographed for observation after fixation with 4% paraformaldehyde. It could be clearly seen that the lungs of the mice in the model group were black and existed multiple white tumor nodules with various sizes on the surface. […] By statistical analysis of the tumor nodules in the lung tissues of mice, the results of the efficacy of inhibiting the lung metastasis of breast cancer cells were shown in Table 3.

Row | Molecule | Average tumor weight (g) [1] | Average tumor suppression rate (%) [1] [%] | Average tumor weight (g) [2] | Average tumor suppression rate (%) [2] [%] | number of lung tumor nodules compared with the model group (in words) [3] | Average tumor weight (g) [3] | Average tumor suppression rate (%) [3] [%] | Number of metastatic lung nodules [3]
1 | Nc1nc2c(ncn2[C@@H]2O[C@@H]3COP(=O)(O)O[C@H]4[C@@H](O)[C@H](n5cnc6c(N)ncnc65)O[C@@H]4COP(=O)(O)O[C@@H]2[C@@H]3O)c(=O)[nH]1 [cGAMP, cyclic dinucleotide 2′,3′-cGAMP, reference compound] | 0.706 ± 0.152 (g) | 68.8 | 0.808 ± 0.137 (g) | 66.1 | a decrease in the number of tumor nodules | 0.775 ± 0.221 (g) | 65.9 | 12
2 | COc1ccc2[nH]c(SCc3nc4cc(F)ccc4c(=O)[nH]3)nc2n1 [ENPP1-YZ1, 2-[(5-methoxy-(imidazo[4,5-B]pyridinyl)-2-thio)methyl]-7-fluoroquinazoline-4(3H)-one] | 0.816 ± 0.203 (g) | 63.9 | 0.943 ± 0.208 (g) | 60.5 | – | 0.898 ± 0.136 (g) | 60.5 | 21
3 | 2-[(4-methyl-(thiazolo[4,5-B]pyridinyl)-2-thio)methyl]-7-fluoro quinazoline-4(3H)-one [ENPP1-YZ2] | 0.805 ± 0.218 (g) | 64.5 | 0.926 ± 0.227 (g) | 61.2 | – | 0.852 ± 0.223 (g) | 62.5 | 20
4 | B1 | 1.807 ± 0.187 (g) | 20.2 | 1.809 ± 0.217 (g) | 24.2 | a small decrease in the number of tumor nodules | 1.805 ± 0.176 (g) | 20.2 | 25
5 | B2 | 1.735 ± 0.206 (g) | 23.4 | 1.758 ± 0.212 (g) | 26.3 | a small decrease in the number of tumor nodules | 1.752 ± 0.214 (g) | 22.9 | 27
